For series [1] the following is noted: Phase 1 and 2 metabolism; cited from earlier work.
Series [2] can be described thus: PET brain uptake. The settings on record: baboon, i.v.
Series [3] has as its system Staphylococcus aureus FabI (saFabI). The settings on record: cited from earlier work.
Series [4] has as its system MRSA. The settings on record: cited from earlier work.
On the set-up of series [5]: species or system baboon. The following applies: in vivo.
On the set-up of series [6]: species or system mice. The settings on record: mouse, in vivo.
The conditions of series [7]: in vivo, iv.
Series [8] concerns InhA. The following applies: binds preferentially to InhA:NAD+ complex; cited from earlier work.
Series [9] has as its system M. tuberculosis. The following applies: cited from earlier work.

Read-outs that look alike come from different tables or passages of the source.

As to `CCCCCCc1ccc(Oc2ccccc2)c(O)c1` [PT04], the route of metabolism entry in series [1] is recorded as “O-glucuronidation was a primary route for metabolism”.

`CCCCCCc1ccc(Oc2ccccc2C#N)c(O)c1` [PT119]: the “ability to penetrate the blood brain barrier (BBB)” value in series [2] (images acquired for 90 min) is “able to penetrate the brain”. Also, the “propensity to cross the BBB, qualitative comparison” value in series [2] (qualitative) is “higher propensity to cross the BBB than PT70”. In addition, the “residence time on saFabI” value in [3] is recorded as ~ 12.5 h. Also, in [4], the “efficacy in a mouse model of MRSA infection” value is “demonstrates efficacy”.

As for `CCCCCCc1ccc(Oc2ccccc2[11CH3])c(O)c1` [[^11C]PT70], in series [5] (baboon), the “elimination into the bladder” value was “another large portion of the injected [11C]PT-70 was eliminated into the bladder”. For the same molecule, in series [5] (iv), the “clearance from the heart, lung and blood” value was “cleared rapidly”. Also, in series [6], the “concentration in the liver versus other peripheral organs” value is recorded as “much higher in the liver” and the “time of highest concentration of drug after injection” value is 20 min.

Turning to `CCCCCCc1ccc(Oc2ccccc2C)c(O)c1` [PT70], in [7], the “ability to penetrate the blood brain barrier (BBB)” value is on record as “able to penetrate the brain”. Moreover, the “residence time on the target” value in [8] is given as 24 min. Besides, the “antibacterial activity in a mouse model of tuberculosis infection” value in series [9] is “shows antibacterial activity”. The “bacterial burden in the lungs” value in series [9] (infected mice, lungs) is given as “did not affect the bacterial burden”. Besides, the “bacterial load in the spleens” value in series [9] (infected mice, spleens) is listed as “reduced the bacterial load”.

The record behind these values is paper PMC4607644 (Bioorganic & medicinal chemistry letters, 2015).
